Values after ≈ are worked out from the molar mass of the structure shown. Active and inactive are the calls of the source. No cut-off for these calls is given here.
How the values were obtained:
[1] = test system: Cryptococcus neoformans; assay: Inhibition of biofilm formation in Cryptococcus neoformans H99 at 16 to 64 ug/ml incubated for 24 hrs by XTT reduction assay; type: functional, organism-based; settings: dose 16-64 µg/ml
[2] = test system: Cryptococcus neoformans; assay: Antifungal activity against Cryptococcus neoformans H99 assessed as reduction in fungal growth incubated for 72 hrs by CLSI protocol based microplate reader analysis; type: functional
[3] = test system: Cryptococcus neoformans; assay: Inhibition of CYP51 in Cryptococcus neoformans H99 assessed as increase in lanosterol level at 4 ug/ml incubated for 24 hrs by GC-MS analysis (Rvb= 6.24%); settings: dose 4.0 µg/ml
[4] = test system: Cryptococcus neoformans; assay: Antifungal activity against Cryptococcus neoformans H99 assessed as change in internal microstructure by observing sparse capsule at 4 ug/ml incubated for 8 hrs by TEM analysis; type: functional, organism-based; settings: dose 4.0 µg/ml
[5] = test system: Cryptococcus neoformans; assay: Inhibition of CYP51 in Cryptococcus neoformans H99 assessed as increase in other unknown sterol level at 4 ug/ml incubated for 24 hrs by GC-MS analysis (Rvb= 12.49%); settings: dose 4.0 µg/ml
[6] = test system: Cryptococcus neoformans; assay: Antifungal activity against Cryptococcus neoformans H99 assessed as reduction in fungal growth at 4 ug/ml incubated upto 72 hrs by microplate reader analysis; type: functional, organism-based; settings: dose 4.0 µg/ml
[7] = test system: Nakaseomyces glabratus; assay: Antifungal activity against Candida glabrata 10639 assessed as reduction in fungal growth incubated for 48 hrs by CLSI protocol based microplate reader analysis; type: functional
[8] = test system: Candida albicans; assay: Antifungal activity against Candida albicans SC5314 assessed as reduction in fungal growth incubated for 48 hrs by CLSI protocol based microplate reader analysis; type: functional
[9] = test system: Cryptococcus neoformans; assay: Disruption of preformed mature biofilm in Cryptococcus neoformans H99 assessed as removal of mature biofilm at 0.125 to 32 ug/ml incubated for 24 hrs by XTT reduction assay; type: functional, organism-based; settings: dose 0.125-32 µg/ml
[10] = test system: Cryptococcus neoformans; assay: Inhibition of CYP51 in Cryptococcus neoformans H99 assessed as decrease in unknown sterol level at 4 ug/ml incubated for 24 hrs by GC-MS analysis (Rvb= 22.95%); settings: dose 4.0 µg/ml
[11] = test system: Cryptococcus neoformans; assay: Antifungal activity against Cryptococcus neoformans H99 assessed as reduction in number of colonies at 0.125 to 1 ug/ml incubated for 72 hrs by agar disk diffusion assay; type: functional; settings: dose 0.125-1 µg/ml
[12] = test system: Candida albicans; assay: Antifungal activity against Candida albicans 0304103 assessed as reduction in fungal growth incubated for 48 hrs by CLSI protocol based microplate reader analysis; type: functional
[13] = test system: Cryptococcus neoformans; assay: Antifungal activity against Cryptococcus neoformans H99 assessed as change in internal microstructure by observing cell membrane damage at 4 ug/ml incubated for 8 hrs by TEM analysis; type: functional, organism-based; settings: dose 4.0 µg/ml
[14] = test system: Cryptococcus neoformans; assay: Inhibition of CYP51 in Cryptococcus neoformans H99 assessed as reduction in ergosterol level at 4 ug/ml incubated for 24 hrs by GC-MS analysis (Rvb= 58.33%); settings: dose 4.0 µg/ml
[15] = test system: Cryptococcus neoformans; assay: Inhibition of CYP51 in Cryptococcus neoformans H99 assessed as increase in lanosterol level at 0.125 ug/ml incubated for 24 hrs by GC-MS analysis (Rvb= 6.24%); settings: dose 0.125 µg/ml
[16] = test system: Cryptococcus neoformans; assay: Antifungal activity against Cryptococcus neoformans H99 assessed as reduction in fungal growth at 0.25 to 8 ug/ml incubated upto 72 hrs by microplate reader analysis; type: functional, organism-based; settings: dose 0.25-8 µg/ml
[17] = test system: Cryptococcus neoformans; assay: Disruption of preformed mature biofilm in Cryptococcus neoformans H99 assessed as removal of mature biofilm at 32 ug/ml incubated for 24 hrs by XTT reduction assay; type: functional; design: scale not given: the % may be the effect or the level left; settings: dose 32 µg/ml
[18] = test system: Cryptococcus neoformans; assay: Inhibition of CYP51 in Cryptococcus neoformans H99 assessed as reduction in ergosterol level at 0.125 ug/ml incubated for 24 hrs by GC-MS analysis (Rvb= 58.33%); settings: dose 0.125 µg/ml
[19] = test system: Cryptococcus neoformans; assay: Inhibition of biofilm formation in Cryptococcus neoformans H99 at 0.25 ug/ml incubated for 24 hrs by XTT reduction assay; type: functional
[20] = test system: Cryptococcus neoformans; assay: Disruption of preformed mature biofilm in Cryptococcus neoformans H99 assessed as removal of mature biofilm at 0.125 ug/ml incubated for 24 hrs by XTT reduction assay; type: functional; design: scale not given: the % may be the effect or the level left; settings: dose 0.125 µg/ml
[21] = test system: Cryptococcus neoformans; assay: Antifungal activity against Cryptococcus neoformans H99 assessed as reduction in melanin production at 32 ug/ml by microplate analysis; type: functional, organism-based; settings: dose 32.0 µg/ml
[22] = test system: Cryptococcus neoformans; assay: Inhibition of CYP51 in Cryptococcus neoformans H99 assessed as decrease in unknown sterol level at 0.125 ug/ml incubated for 24 hrs by GC-MS analysis (Rvb= 22.95%); settings: dose 0.125 µg/ml
[23] = test system: Cryptococcus neoformans; assay: Disruption of preformed mature biofilm in Cryptococcus neoformans H99 assessed as removal of mature biofilm at 0.125 to 32 ug/ml incubated for 24 hrs in presence of 2-phenyl-4,4,5,5-tetramethylimidazoline-l-oxyl 3-oxide by XTT reduction assay; type: functional, organism-based; settings: dose 0.125-32 µg/ml
[24] = test system: Cryptococcus neoformans; assay: Fungicidal activity against Cryptococcus neoformans H99 assessed as cell death by measuring red fluorescence at 8 ug/ml incubated for 12 hrs by PI staining based confocal laser scanning microscopy; type: functional, organism-based; settings: dose 8.0 µg/ml
[25] = test system: Cryptococcus neoformans; assay: Inhibition of CYP51 in Cryptococcus neoformans H99 assessed as increase in other unknown sterol level at 0.125 ug/ml incubated for 24 hrs by GC-MS analysis (Rvb= 12.49%); settings: dose 0.125 µg/ml
[26] = Drug metabolism in Cryptococcus neoformans H99 assessed as NO release by measuring green fluorescence at 8 ug/ml incubated for 12 hrs by DAF-FM DA staining based confocal laser scanning microscopy; type: ADME; settings: dose 8 µg/ml
[27] = test system: Cryptococcus neoformans; assay: Antifungal activity against Cryptococcus neoformans H99 assessed as reduction in urease production at 8 ug/ml by microplate analysis; type: functional, organism-based; settings: dose 8.0 µg/ml
[28] = test system: Cryptococcus neoformans; assay: Fungicidal activity against Cryptococcus neoformans H99 assessed as reduction in colony forming units at 8 ug/ml incubated upto 72 hrs by time-kill assay; type: functional; design: scale not given: the % may be the effect or the level left; settings: dose 8 µg/ml
[29] = test system: Cryptococcus neoformans; assay: In vivo antifungal activity against Cryptococcus neoformans H99 infected in cryptococcal meningitis ICR mouse model assessed as reduction in neuronal necrosis at 10 mg/kg,INH QD for 5 days by H and E staining based microscopic analysis; type: functional, organism-based; settings: time 5.0 day
[30] = test system: Cryptococcus neoformans; assay: In vivo antifungal activity against Cryptococcus neoformans H99 infected in cryptococcal meningitis ICR mouse model assessed as reduction in fungal burden in lung at 10 mg/kg,INH QD for 5 days by CFU assay; type: functional, organism-based; settings: time 5.0 day
[31] = test system: Cryptococcus neoformans; assay: In vivo antifungal activity against Cryptococcus neoformans H99 infected in cryptococcal meningitis ICR mouse model assessed as reduction in blood vessel congestion at 10 mg/kg,INH QD for 5 days by H and E staining based microscopic analysis; type: functional, organism-based; settings: time 5.0 day
[32] = test system: Cryptococcus neoformans; assay: In vivo antifungal activity against Cryptococcus neoformans H99 infected in cryptococcal meningitis ICR mouse model assessed as reduction in fungal burden in brain at 10 mg/kg,INH QD for 5 days by CFU assay; type: functional, organism-based; settings: time 5.0 day
[33] = Metabolic stability in Sprague-Dawley rat liver microsomes assessed as parent compound remaining at 200 uM and measured upto 120 mins by HPLC analysis; type: ADME, Microsome; settings: 2 h
[34] = test system: Cryptococcus neoformans; assay: In vivo antifungal activity against Cryptococcus neoformans H99 infected in cryptococcal meningitis ICR mouse model assessed as reduction in irregular cavities in brain at 10 mg/kg,INH QD for 5 days by H and E staining based microscopic analysis; type: functional, organism-based; settings: time 5.0 day
[35] = Metabolic stability in Sprague-Dawley rat plasma assessed as parent compound remaining at 500 uM and measured upto 120 mins by HPLC analysis; type: ADME, cell-free; settings: 2 h
[36] = test system: Cryptococcus neoformans; assay: In vivo antifungal activity against Cryptococcus neoformans H99 infected in cryptococcal meningitis ICR mouse model assessed as reduction in organism brain invasion at 10 mg/kg,INH QD for 5 days by PAS staining based microscopic analysis; type: functional; settings: time 5.0 day

CC1(C)N(O)C(c2ccccc2)=[N+]([O-])C1(C)C
inhibition [1]: inactive

OC(Cn1cncn1)(Cn1cncn1)c1ccc(F)cc1F [FLUCONAZOLE]
MIC80 [2]: 2 µg/mL (≈ 6.53 µM)
inhibition [3]: 53.9%
Activity [4]: inactive
inhibition [5]: 21.4%
Activity [6]: inactive
MIC80 [7]: 2 µg/mL (≈ 6.53 µM)
MIC80 [8]: 0.5 µg/mL (≈ 1.63 µM)
Activity [9]: inactive
inhibition [10]: 5.55%
Activity [11]: inactive
MIC80 [12]: > 64 µg/mL
Activity [13]: Active
inhibition [14]: 19.2%

CN(Cc1ccc(OCCCOc2ccc(CC(=O)OCc3ccc(CO[N+](=O)[O-])cc3)cc2)cc1)CC(O)(Cn1cncn1)c1ccc(F)cc1F (stereo not given)
inhibition [15]: 50.9%
Activity [16]: Dose-Dependent Effect
MIC80 [2]: 0.5 µg/mL (≈ 0.683 µM)
Activity [17]: 50%
inhibition [18]: 10.7%
MIC80 [7]: 1 µg/mL (≈ 1.37 µM)
inhibition at 0.25 µg/mL [19]: > 50%
Activity [20]: 25%
Activity [21]: Active
inhibition [22]: 4.75%
Activity [23]: inactive
Activity [24]: Active
MIC80 [8]: 1 µg/mL (≈ 1.37 µM)
inhibition [25]: 33.6%
Activity ([11]; at 0.125 to 1 µg/mL): 100%
Drug metabolism [26]: Metabolite_Detected
MIC80 [12]: 32 µg/mL (≈ 43.7 µM)
Activity [27]: Active
Activity [28]: 100%

CN(Cc1ccc(OCCCOc2ccc(CC(=O)NCCO[N+](=O)[O-])cc2)cc1)CC(O)(Cn1cncn1)c1ccc(F)cc1F (stereo not given)
MIC80 [2]: 0.125 µg/mL (≈ 0.191 µM)
Activity [29]: Active
MIC80 [7]: 1 µg/mL (≈ 1.53 µM)
Activity [30]: inactive
MIC80 [8]: 1 µg/mL (≈ 1.53 µM)
Activity [31]: Active
Activity [32]: Active
Stability [33]: Stable
MIC80 [12]: > 64 µg/mL
Activity [34]: Active
Stability [35]: Stable
Activity [36]: Active

Source: ChEMBL document CHEMBL5370616, “Novel Nitric Oxide Donor-Azole Conjugation Strategy for Efficient Treatment of Cryptococcus neoformans Infections” (J Med Chem, 2023)
